# Reference: PubChem BioAssay (NCI)
#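 The compound was tested at five concentrations on cells cultured in 96-well plates, with a 48-hour exposure period. GI50 is the concentration that inhibits growth by half. TGI: concentration producing complete growth inhibition.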
# Legend:
# Test in all cases: NCI-60 cell line screen, 48 h
# TK-10 renal = tested on: TK-10 renal
# COLO 205 colon = tested on: COLO 205 colon
# SF-539 CNS = tested on: SF-539 CNS
# NCI-H460 lung = tested on: NCI-H460 lung
# LOX IMVI melanoma = tested on: LOX IMVI melanoma
# SF-268 CNS = tested on: SF-268 CNS
# BT-549 breast = tested on: BT-549 breast
# CAKI-1 renal = tested on: CAKI-1 renal
# NCI-H226 lung = tested on: NCI-H226 lung
# A498 renal = tested on: A498 renal
# SK-MEL-2 melanoma = tested on: SK-MEL-2 melanoma
# HCC-2998 colon = tested on: HCC-2998 colon
# KM12 colon = tested on: KM12 colon
# T-47D breast = tested on: T-47D breast
# NCI-H23 lung = tested on: NCI-H23 lung
# OVCAR-4 ovarian = tested on: OVCAR-4 ovarian
# SF-295 CNS = tested on: SF-295 CNS
# MCF7 breast = tested on: MCF7 breast
# ACHN renal = tested on: ACHN renal
# EKVX NSCLC = tested on: EKVX NSCLC
# M14 melanoma = tested on: M14 melanoma
# U251 CNS = tested on: U251 CNS
# MDA-MB-231 breast = tested on: MDA-MB-231 breast
# NCI-H522 lung = tested on: NCI-H522 lung
# RPMI-8226 leukemia = tested on: RPMI-8226 leukemia
# A549 NSCLC = tested on: A549 NSCLC
# SK-MEL-5 melanoma = tested on: SK-MEL-5 melanoma
# SN12C renal = tested on: SN12C renal
# NCI/ADR-RES ovarian = tested on: NCI/ADR-RES ovarian
# MALME-3M melanoma = tested on: MALME-3M melanoma
# IGROV1 ovarian = tested on: IGROV1 ovarian
# SNB-75 CNS = tested on: SNB-75 CNS
# OVCAR-3 ovarian = tested on: OVCAR-3 ovarian
# DU-145 prostate = tested on: DU-145 prostate
# MDA-MB-435 = tested on: MDA-MB-435
# SW-620 colon = tested on: SW-620 colon
# HT29 colon = tested on: HT29 colon
# 786-0 renal = tested on: 786-0 renal
# K-562 leukemia = tested on: K-562 leukemia
# CCRF-CEM leukemia = tested on: CCRF-CEM leukemia
# SK-OV-3 ovarian = tested on: SK-OV-3 ovarian
# UACC-62 melanoma = tested on: UACC-62 melanoma
# MOLT-4 leukemia = tested on: MOLT-4 leukemia
# UO-31 renal = tested on: UO-31 renal
# UACC-257 melanoma = tested on: UACC-257 melanoma
# HS 578T breast = tested on: HS 578T breast
# HCT-15 colon = tested on: HCT-15 colon
# OVCAR-8 ovarian = tested on: OVCAR-8 ovarian
# OVCAR-5 ovarian = tested on: OVCAR-5 ovarian
# PC-3 prostate = tested on: PC-3 prostate
# HOP-62 NSCLC = tested on: HOP-62 NSCLC
# RXF 393 renal = tested on: RXF 393 renal
# SNB-19 CNS = tested on: SNB-19 CNS
# HL-60(TB) leukemia = tested on: HL-60(TB) leukemia
# HOP-92 NSCLC = tested on: HOP-92 NSCLC
# SK-MEL-28 melanoma = tested on: SK-MEL-28 melanoma
# SR leukemia = tested on: SR leukemia
# HCT-116 colon = tested on: HCT-116 colon
smiles,measurement,setting,value
CCOC(=O)C(=Cc1ccccc1[N+](=O)[O-])C(=O)OCC,GI50,TK-10 renal,5.39 µM
same,TGI,TK-10 renal,15.7 µM
same,GI50,COLO 205 colon,2.14 µM
same,TGI,COLO 205 colon,3.85 µM
same,GI50,SF-539 CNS,3.55 µM
same,TGI,SF-539 CNS,9.32 µM
same,GI50,NCI-H460 lung,3.25 µM
same,TGI,NCI-H460 lung,10.8 µM
same,GI50,LOX IMVI melanoma,1.58 µM
same,TGI,LOX IMVI melanoma,3.51 µM
same,GI50,SF-268 CNS,3.35 µM
same,TGI,SF-268 CNS,11.5 µM
same,GI50,BT-549 breast,5.28 µM
same,TGI,BT-549 breast,17.3 µM
same,GI50,CAKI-1 renal,3.61 µM
same,TGI,CAKI-1 renal,14.3 µM
same,GI50,NCI-H226 lung,3.26 µM
same,TGI,NCI-H226 lung,12.8 µM
same,GI50,A498 renal,5.6 µM
same,TGI,A498 renal,17.3 µM
same,GI50,SK-MEL-2 melanoma,4.01 µM
same,TGI,SK-MEL-2 melanoma,11.9 µM
same,GI50,HCC-2998 colon,3.48 µM
same,TGI,HCC-2998 colon,10.7 µM
same,GI50,KM12 colon,2.72 µM
same,TGI,KM12 colon,10.3 µM
same,GI50,T-47D breast,3.68 µM
same,TGI,T-47D breast,17.5 µM
same,GI50,NCI-H23 lung,3.35 µM
same,TGI,NCI-H23 lung,13.9 µM
same,GI50,OVCAR-4 ovarian,4.68 µM
same,TGI,OVCAR-4 ovarian,18.1 µM
same,GI50,SF-295 CNS,5.38 µM
same,TGI,SF-295 CNS,20.1 µM
same,GI50,MCF7 breast,2.52 µM
same,TGI,MCF7 breast,14.2 µM
same,GI50,ACHN renal,2.06 µM
same,TGI,ACHN renal,4.31 µM
same,GI50,EKVX NSCLC,6.61 µM
same,TGI,EKVX NSCLC,20.9 µM
same,GI50,M14 melanoma,2.95 µM
same,TGI,M14 melanoma,10.1 µM
same,GI50,U251 CNS,3.65 µM
same,TGI,U251 CNS,13.1 µM
same,GI50,MDA-MB-231 breast,2.48 µM
same,TGI,MDA-MB-231 breast,7.59 µM
same,GI50,NCI-H522 lung,1.86 µM
same,TGI,NCI-H522 lung,4.63 µM
same,GI50,RPMI-8226 leukemia,3.69 µM
same,TGI,RPMI-8226 leukemia,18.3 µM
same,GI50,A549 NSCLC,4.05 µM
same,TGI,A549 NSCLC,17.5 µM
same,GI50,SK-MEL-5 melanoma,1.33 µM
same,TGI,SK-MEL-5 melanoma,2.66 µM
same,GI50,SN12C renal,2.85 µM
same,TGI,SN12C renal,11.3 µM
same,GI50,NCI/ADR-RES ovarian,2.59 µM
same,TGI,NCI/ADR-RES ovarian,7.8 µM
same,GI50,MALME-3M melanoma,3.85 µM
same,TGI,MALME-3M melanoma,13.2 µM
same,GI50,IGROV1 ovarian,3.77 µM
same,TGI,IGROV1 ovarian,15.4 µM
same,GI50,SNB-75 CNS,2.57 µM
same,TGI,SNB-75 CNS,9.68 µM
same,GI50,OVCAR-3 ovarian,2.65 µM
same,TGI,OVCAR-3 ovarian,6.48 µM
same,GI50,DU-145 prostate,3.22 µM
same,TGI,DU-145 prostate,12 µM
same,GI50,MDA-MB-435,3.08 µM
same,TGI,MDA-MB-435,12.1 µM
same,GI50,SW-620 colon,2.12 µM
same,TGI,SW-620 colon,4.85 µM
same,GI50,HT29 colon,3.27 µM
same,TGI,HT29 colon,9.39 µM
same,GI50,786-0 renal,3.85 µM
same,TGI,786-0 renal,11.8 µM
same,GI50,K-562 leukemia,3.64 µM
same,TGI,K-562 leukemia,> 100 µM
same,GI50,CCRF-CEM leukemia,3.13 µM
same,TGI,CCRF-CEM leukemia,20.6 µM
same,GI50,SK-OV-3 ovarian,3.51 µM
same,TGI,SK-OV-3 ovarian,12.7 µM
same,GI50,UACC-62 melanoma,1.59 µM
same,TGI,UACC-62 melanoma,3.39 µM
same,GI50,MOLT-4 leukemia,3.55 µM
same,TGI,MOLT-4 leukemia,34.5 µM
same,GI50,UO-31 renal,4.52 µM
same,TGI,UO-31 renal,15.9 µM
same,GI50,UACC-257 melanoma,3.25 µM
same,TGI,UACC-257 melanoma,14.3 µM
same,GI50,HS 578T breast,2.71 µM
same,TGI,HS 578T breast,11.6 µM
same,GI50,HCT-15 colon,1.83 µM
same,TGI,HCT-15 colon,4.47 µM
same,GI50,OVCAR-8 ovarian,2.87 µM
same,TGI,OVCAR-8 ovarian,11.3 µM
same,GI50,OVCAR-5 ovarian,5.75 µM
same,TGI,OVCAR-5 ovarian,15.7 µM
same,GI50,PC-3 prostate,6.69 µM
same,TGI,PC-3 prostate,34.7 µM
same,GI50,HOP-62 NSCLC,3.48 µM
same,TGI,HOP-62 NSCLC,12.9 µM
same,GI50,RXF 393 renal,1.33 µM
same,TGI,RXF 393 renal,2.78 µM
same,GI50,SNB-19 CNS,4.27 µM
same,TGI,SNB-19 CNS,16.4 µM
same,GI50,HL-60(TB) leukemia,3.3 µM
same,TGI,HL-60(TB) leukemia,45.5 µM
same,GI50,HOP-92 NSCLC,3.67 µM
same,TGI,HOP-92 NSCLC,8.8 µM
same,GI50,SK-MEL-28 melanoma,2.93 µM
same,TGI,SK-MEL-28 melanoma,9.59 µM
same,GI50,SR leukemia,2.07 µM
same,TGI,SR leukemia,30.1 µM
same,GI50,HCT-116 colon,2.53 µM
same,TGI,HCT-116 colon,7.56 µM
